Experimental data as given in US3960877A, “N-monosubstituted-2,3-pyridinedicarboxamides, and related compounds” (priority 1974, dated 1976).

Experiments:
Assay type in all cases: in vivo
Alfalfa [1] = assay: Preemergence herbicidal activity, % control of plant growth; conditions: Medicago sativa, pre-emergence, 504 h, 16 lb/acre, about 3 weeks
Description: (§1) By "preemergence" is meant that the compound is applied to the soil prior to emergence of the weed species sought to be controlled. This term, as used herein, also means the application of the herbicidal compounds falling within the scope of this disclosure to areas wherein useful or desirable plants are either growing or have been sown, but where the undesirable plants sought to be controlled have not as yet emerged.
(§2) In using the compound, seeds of the types of plants set forth in Table II were sown in fresh soil. In the preemergence test the soil was sprayed with a solution of the test compound immediately after the seeds were planted, and before any noticeable growth developed. The solution was about a 2 percent by weight solution of the compound in acetone and/or alcohol. The compound was applied at the rate of 16 pounds per acre of soil surface.
(§3) Approximately 3 weeks after spray application, the herbicidal activity of the compound was determined by visual observation of the treated area in comparison with untreated control areas. These observations are reported below in Table II wherein the average activity rating is reported as the percent control of plant growth.
(§4) *Preemergence test: compound applied at rate of 16 lb/acre

Barnyard Grass [2] = assay: as above; conditions: Echinochloa crus-galli, pre-emergence, 504 h; barnyard grass; 16 lb/acre; about 3 weeks
Description: as §1, §2, §3, §4

Cheatgrass [3] = assay: as above; conditions: Bromus tectorum, pre-emergence, 504 h, 16 lb/acre, about 3 weeks
Description: as §1, §2, §3, §4

Chickweed [4] = assay: as above; conditions: pre-emergence, 504 h, 16 lb/acre, about 3 weeks
Description: as §1, §2, §3, §4

Corn [5] = assay: as above; conditions: Zea mays, pre-emergence, 504 h, 16 lb/acre, about 3 weeks
Description: as §1, §2, §3, §4

Crabgrass [6] = assay: as above; conditions: Digitaria sanguinalis, pre-emergence, 504 h, 16 lb/acre, about 3 weeks
Description: as §1, §2, §3, §4

Cucumber [7] = assay: as above; conditions: Cucumis sativus, pre-emergence, 504 h, 16 lb/acre, about 3 weeks
Description: as §1, §2, §3, §4

Curled Dock [8] = assay: as above; conditions: pre-emergence, 504 h, 16 lb/acre, about 3 weeks
Description: as §1, §2, §3, §4

Foxtail [9] = assay: as above; conditions: Setaria, pre-emergence, 504 h, 16 lb/acre, about 3 weeks
Description: as §1, §2, §3, §4

Johnsongrass [10] = assay: as above; conditions: Sorghum halepense, pre-emergence, 504 h, 16 lb/acre, about 3 weeks
Description: as §1, §2, §3, §4

Lambsquarters [11] = assay: as above; conditions: Chenopodium album, pre-emergence, 504 h, 16 lb/acre, about 3 weeks
Description: as §1, §2, §3, §4

Nutgrass [12] = assay: as above; conditions: pre-emergence, 504 h, 16 lb/acre, about 3 weeks
Description: as §1, §2, §3, §4

Pigweed [13] = assay: as above; conditions: Amaranthus retroflexus, pre-emergence, 504 h, 16 lb/acre, about 3 weeks
Description: as §1, §2, §3, §4

Snapbeans [14] = assay: as above; conditions: pre-emergence, 504 h, 16 lb/acre, about 3 weeks
Description: as §1, §2, §3, §4

Velvetleaf [15] = assay: as above; conditions: Abutilon theophrasti, pre-emergence, 504 h, 16 lb/acre, about 3 weeks
Description: as §1, §2, §3, §4

Wild Oats [16] = assay: as above; conditions: Avena fatua, pre-emergence, 504 h, 16 lb/acre, about 3 weeks
Description: as §1, §2, §3, §4

Yellow Rocket [17] = assay: as above; conditions: pre-emergence, 504 h, 16 lb/acre, about 3 weeks
Description: as §1, §2, §3, §4

Alfalfa [18] = assay: Postemergence herbicidal activity, % control of plant growth; conditions: Medicago sativa, post-emergence, 264 h, 8 lb/acre, about 11 days
Description: (§5) By the term "postemergence" is meant that the compound is applied to the plant sought to be controlled after it has emerged from the soil surface. This term is also used to describe the application of herbicidally active compounds to soil surface in and around growing plants sought to be controlled for purposes of effecting root absorption by the undesirable plant species.
(§6) In the postemergence test the soil and developing plants were sprayed approximately 2 weeks after the seeds were sown. The compound was applied at the rate of 8 pounds per acre from about a 2 percent by weight solution of the test compound in acetone and/or alcohol. The postemergence herbicidal activity was measured in the same way as the preemergence activity; i.e. visual observation approximately 11 days after spraying, and expressed as the percent control of plant growth.
(§7) **Postemergence test: compound applied at rate of 8 lb/acre

Barnyard Grass [19] = assay: as above; conditions: Echinochloa crus-galli, post-emergence, 264 h, 8 lb/acre, about 11 days
Description: as §5, §6, §7

Cheatgrass [20] = assay: as above; conditions: Bromus tectorum, post-emergence, 264 h, 8 lb/acre, about 11 days
Description: as §5, §6, §7

Chickweed [21] = assay: as above; conditions: post-emergence, 264 h, 8 lb/acre, about 11 days
Description: as §5, §6, §7

Corn [22] = assay: as above; conditions: Zea mays, post-emergence, 264 h, 8 lb/acre, about 11 days
Description: as §5, §6, §7

Crabgrass [23] = assay: as above; conditions: Digitaria sanguinalis, post-emergence, 264 h, 8 lb/acre, about 11 days
Description: as §5, §6, §7

Cucumber [24] = assay: as above; conditions: Cucumis sativus, post-emergence, 264 h, 8 lb/acre, about 11 days
Description: as §5, §6, §7

Curled Dock [25] = assay: as above; conditions: post-emergence, 264 h, 8 lb/acre, about 11 days
Description: as §5, §6, §7

Foxtail [26] = assay: as above; conditions: Setaria, post-emergence, 264 h, 8 lb/acre, about 11 days
Description: as §5, §6, §7

Johnsongrass [27] = assay: as above; conditions: Sorghum halepense, post-emergence, 264 h, 8 lb/acre, about 11 days
Description: as §5, §6, §7

Lambsquarters [28] = assay: as above; conditions: Chenopodium album, post-emergence, 264 h, 8 lb/acre, about 11 days
Description: as §5, §6, §7

Nutgrass [29] = assay: as above; conditions: post-emergence, 264 h, 8 lb/acre, about 11 days
Description: as §5, §6, §7

Pigweed [30] = assay: as above; conditions: Amaranthus retroflexus, post-emergence, 264 h, 8 lb/acre, about 11 days
Description: as §5, §6, §7

Snapbeans [31] = assay: as above; conditions: post-emergence, 264 h, 8 lb/acre, about 11 days
Description: as §5, §6, §7

Velvetleaf [32] = assay: as above; conditions: Abutilon theophrasti, post-emergence, 264 h, 8 lb/acre, about 11 days
Description: as §5, §6, §7

Wild Oats [33] = assay: as above; conditions: Avena fatua, post-emergence, 264 h, 8 lb/acre, about 11 days
Description: as §5, §6, §7

Yellow Rocket [34] = assay: as above; conditions: post-emergence, 264 h, 8 lb/acre, about 11 days
Description: as §5, §6, §7

Row | SMILES | pest or weed control at 17933.6 g/ha (Alfalfa [1]) [%] | pest or weed control at 17933.6 g/ha (Barnyard Grass [2]) [%] | pest or weed control at 17933.6 g/ha (Cheatgrass [3]) [%] | pest or weed control at 17933.6 g/ha (Chickweed [4]) [%] | plant injury at 17933.6 g/ha (Corn [5]) [%] | pest or weed control at 17933.6 g/ha (Crabgrass [6]) [%] | pest or weed control at 17933.6 g/ha (Cucumber [7]) [%] | pest or weed control at 17933.6 g/ha (Curled Dock [8]) [%] | pest or weed control at 17933.6 g/ha (Foxtail [9]) [%] | pest or weed control at 17933.6 g/ha (Johnsongrass [10]) [%] | pest or weed control at 17933.6 g/ha (Lambsquarters [11]) [%] | pest or weed control at 17933.6 g/ha (Nutgrass [12]) [%] | pest or weed control at 17933.6 g/ha (Pigweed [13]) [%] | pest or weed control at 17933.6 g/ha (Snapbeans [14]) [%] | pest or weed control at 17933.6 g/ha (Velvetleaf [15]) [%] | pest or weed control at 17933.6 g/ha (Wild Oats [16]) [%] | pest or weed control at 17933.6 g/ha (Yellow Rocket [17]) [%] | pest or weed control at 8966.8 g/ha (Alfalfa [18]) [%] | pest or weed control at 8966.8 g/ha (Barnyard Grass [19]) [%] | pest or weed control at 8966.8 g/ha (Cheatgrass [20]) [%] | further results
1 | CCCCn1c(=O)[nH]c2cccnc2c1=O [3-butyl-pyrido[3,2-d]pyrimidine-2,4(1H,3H)-dione] | 100 | 100 | 100 | 100 | 100 | 90 | 100 | 90 | 100 | 100 | 70 | 100 | 100 | 100 | 100 | 100 | 100 | 50 | 100 | 100 | pest or weed control at 8966.8 g/ha (Chickweed [21]): 100%; plant injury at 8966.8 g/ha (Corn [22]): 50%; pest or weed control at 8966.8 g/ha (Crabgrass [23]): 100%; pest or weed control at 8966.8 g/ha (Cucumber [24]): 100%; pest or weed control at 8966.8 g/ha (Curled Dock [25]): 100%; pest or weed control at 8966.8 g/ha (Foxtail [26]): 100%; pest or weed control at 8966.8 g/ha (Johnsongrass [27]): 100%; pest or weed control at 8966.8 g/ha (Lambsquarters [28]): 10%; pest or weed control at 8966.8 g/ha (Nutgrass [29]): 90%; pest or weed control at 8966.8 g/ha (Pigweed [30]): 90%; pest or weed control at 8966.8 g/ha (Snapbeans [31]): 100%; pest or weed control at 8966.8 g/ha (Velvetleaf [32]): 100%; pest or weed control at 8966.8 g/ha (Wild Oats [33]): 100%; pest or weed control at 8966.8 g/ha (Yellow Rocket [34]): 90%
2 | CCn1c(=O)[nH]c2cccnc2c1=O [3-ethyl-pyrido[3,2-d]pyrimidine-2,4(1H,3H)-dione] | 100 | 40 | 100 | 100 | 10 | 100 | 100 | 100 | 40 | 60 | 100 | 10 | 100 | 100 | 90 | 100 | 100 | 50 | 10 | 30 | pest or weed control at 8966.8 g/ha (Chickweed [21]): 100%; plant injury at 8966.8 g/ha (Corn [22]): 10%; pest or weed control at 8966.8 g/ha (Crabgrass [23]): 80%; pest or weed control at 8966.8 g/ha (Cucumber [24]): 50%; pest or weed control at 8966.8 g/ha (Curled Dock [25]): 90%; pest or weed control at 8966.8 g/ha (Foxtail [26]): 40%; pest or weed control at 8966.8 g/ha (Johnsongrass [27]): 60%; pest or weed control at 8966.8 g/ha (Lambsquarters [28]): 100%; pest or weed control at 8966.8 g/ha (Nutgrass [29]): 10%; pest or weed control at 8966.8 g/ha (Pigweed [30]): 90%; pest or weed control at 8966.8 g/ha (Snapbeans [31]): 80%; pest or weed control at 8966.8 g/ha (Velvetleaf [32]): 100%; pest or weed control at 8966.8 g/ha (Wild Oats [33]): 0%; pest or weed control at 8966.8 g/ha (Yellow Rocket [34]): 100%
